Here are results for 2 compounds from patent US20180243387A1, “TECHNOLOGY FOR C[…] CELLS” (RIKEN, priority 2017, published 2018).

Type in all cases: cell-based, mice
The test system of data set [1] is naïve CD4SP T cells. The data set can be described thus: Cell proliferation of naïve CD4SP T cells under anti-CD3/anti-CD28 stimulation (OD 450 nm). To be noted: for effect of inhibiting cellular proliferation by cGAMP: FIG. 7A. The procedure: Wild type mice and STING-deficient mice were used. As acquired immune lymphocytes, T cells (in particular naïve CD4SP T cells) were used. Naïve CD4SP T cells were obtained as a CD4^+ CD25^− CD62L^+ fraction from murine spleen by sorting using FACSAria. As a STING ligand, cyclic [G(2′,5′)pA(3′,5′)p] (hereinafter, simply referred to as “cGAMP”) was used. cGAMP (manufactured by Invitrogen, Cat. No.: tlrl-nacga23-1) was used at a working concentration of 3 μg/mL, 10 μg/mL, or 30 μg/mL. The obtained T cells were stimulated with an anti-CD3 antibody (10 μg/mL) and an anti-CD28 antibody (10 μg/mL) in the presence or absence of cGAMP. […] The cells were treated for 48 hours and then the cell proliferation was measured by the optical density (OD 450 nm). The result was as illustrated in FIG. 1.
Moreover, the involvement of TBK1 in the function to inhibit cell proliferation by cGAMP was examined using TBK1 heterozygous mice and TBK1 knockout mice. The result was as illustrated in FIG. 6B.
(§1) Next, involvement of IRF3 and IRF7 in the effect of inhibiting cellular proliferation and the effect of increasing production of INF-α through STING were examined. Specifically, T cells from IRF3-deficient mice or IRF3/IRF7 double deficient mice (see Immunity, Vol. 13, 539-548, 2000; Nature, Vol. 434, 772-777, 2005) were stimulated by anti-CD3/CD28 antibodies in the presence or absence of cGAMP. 48 hours later, the proliferation of the cells and the production of INF-α were examined as described above. The results were as illustrated in FIGS. 7A and 7B.

Data set [2] concerns lipid synthesis genes that are induced by the activation of mTORC1. In words: Expression levels of lipid synthesis genes by quantitative PCR. The note with it: FIG. 5. The method, then: Moreover, the expression levels of lipid synthesis genes that are induced by the activation of mTORC1 were analyzed by quantitative PCR. The result was as illustrated in FIG. 5.
The next data set has as its system type I interferon INF-α. The data set can be described thus: Production of type I interferon INF-α in naïve CD4SP T cells by ELISA. To be noted: for effect of increasing production of INF-α by cGAMP: 48 hours, FIG. 7B. The method, then: 1×10^5 naïve CD4SP T cells were stimulated for 48 hours on a plate on which an anti-CD3 antibody (10 μg/mL) and an anti-CD28 antibody (10 μg/mL) were immobilized. The cell supernatant was collected and the production of the type I interferon INF-α was examined by ELISA using an anti-INF-α antibody. In innate immune cells, type I interferons are produced by the activation of TBK1 and its downstream IRF3 and IRF7. Therefore, T cells from TBK1 heteromice (Tbk1+/−) and TBK1-deficient mice (Tbk1−/−) were used (see, J Exp Med, Vol. 199, 1641-1650, 2004). The result was as illustrated in FIG. 6A.
as §1
A general note: In an ELISA, binding on a coated surface is turned into a signal by an enzyme label.

For data set [3], the system named is naïve CD4SP T cells. The data set can be described thus: Cell survival rate of naïve CD4SP T cells (apoptosis inducing effect). To be noted: cGAMP 10 or 30 μg/mL, 15 hours, FIG. 2.
Data set [4] relates to mTOR Complex 1 (mTORC1) signaling. The data set can be described thus: Phosphorylated level of signal molecules by western blotting. The note with it: anti-CD3/CD28 antibodies 24 hours, FIG. 4. The method, then: As a signal molecule that is involved in the expression of cell proliferation-related genes, the activation level of mTOR Complex 1 (mTORC1) signaling was analyzed. Specifically, as described in (1) above, naïve CD4SP T cells were stimulated with anti-CD3/CD28 antibodies for 24 hours in the presence or absence of cGAMP. Subsequently, the phosphorylated level of indicated factors was evaluated with antibodies specific to the phosphorylated form by western blotting. As primary antibodies, the antibodies set forth in the following were used. The following primary antibodies were manufactured by Cell Signaling Technology, Inc. and the catalog numbers are indicated in the parentheses.
Anti-phospho-IRF3 (#4947)
Anti-phospho-STAT5 (#9351)
Anti-phospho-Jak3 (#5031)
Anti-phospho-STING (#13647)
As a second antibody, Goat anti-Rabbit IgG (H+L) Secondary Antibody, HRP from Thermo Fisher Scientific Inc. was used. Phosphorylated proteins were detected according to a manufacturer manual. The result was as illustrated in FIG. 4.
Background: In western blotting, separated proteins are transferred to a membrane and probed.

Data set [5] deals with cell cycle-related factors in naïve CD4SP T cells. The data set can be described thus: Gene expression of cell cycle-related factors by quantitative PCR. To be noted: anti-CD3/CD28 antibodies 24 hours, FIG. 3. The procedure:
As described in (1) above, naïve CD4SP T cells were stimulated with anti-CD3/CD28 antibodies for 24 hours in the presence or absence of cGAMP. Subsequently, the gene expression of cell cycle-related factors was examined by quantitative PCR according to a conventional method. The result was as illustrated in FIG. 3.

Turning to `COc1cc([C@@H]2c3cc4c(cc3[C@@H](O[C@@H]3O[C@@H]5CO[C@@H](C)O[C@H]5[C@H](O)[C@H]3O)[C@H]3COC(=O)[C@H]23)OCO4)cc(OC)c1O` [etoposide], the “number of cells (cell proliferation, OD 450 nm)” value in the data set with naïve CD4SP T cells [1] (etoposide 10 μM, STING+/+ and STING−/−, 48 hours, FIG. 1) is given as “decreased independent of the STING genotype”.

`Nc1nc2c(ncn2[C@@H]2O[C@@H]3COP(=O)(O)O[C@H]4[C@@H](O)[C@H](n5cnc6c(N)ncnc65)O[C@@H]4COP(=O)(O)O[C@@H]2[C@@H]3O)c(=O)[nH]1` [cGAMP, cyclic [G(2′,5′)pA(3′,5′)p]]: the “expression levels of lipid synthesis-related genes” value in data set [2] was “decreased”. In addition, the “effect of increasing production of INF-α by cGAMP” value with type I interferon INF-α (IRF3/IRF7 double deficient mice) is listed as “almost completely disappeared”. The “effect of increasing production of INF-α by cGAMP” value with type I interferon INF-α (IRF3 deficient mice) is on record as “almost completely disappeared”. Moreover, the “increase in production of INF-α by cGAMP” value in the data set with type I interferon INF-α (TBK1-deficient mice (Tbk1−/−) versus Tbk1+/−, FIG. 6A) is reported as “decreased by TBK1 knockout”. Further, the “INF-α production in T cells” value in the data set on type I interferon INF-α (anti-CD3/anti-CD28 stimulation 48 hours, ELISA of supernatant, FIG. 6A) is “prominent increase”. Besides, the “effect of inhibiting cellular proliferation by cGAMP” value with naïve CD4SP T cells [1] (IRF3/IRF7 double deficient mice, 48 hours) was “largely decreased”. Moreover, the “effect of inhibiting cellular proliferation by cGAMP” value in the data set with naïve CD4SP T cells [1] (IRF3 deficient mouse, 48 hours) was “partially decreased”. Further, the “effect on the number of naïve CD4SP T cells” value with naïve CD4SP T cells [1] (STING-deficient mice (STING−/−), anti-CD3/anti-CD28 stimulation, 48 hours, FIG. 1) is reported as “limited”. In addition, in the data set with naïve CD4SP T cells [1] (TBK1 knockout versus TBK1 heterozygous mice, FIG. 6B), the “effect of Tbk1 knockout on inhibition of cell proliferation by cGAMP” value is “almost no effect”. The “degree of effect on the number of cells compared with etoposide” value in the data set on naïve CD4SP T cells [1] (cGAMP versus 10 μM etoposide, 48 hours, FIG. 1) was “acted in a degree similar to etoposide”. In the data set on naïve CD4SP T cells [1] (wild type mice (STING+/+), cGAMP 3, 10 or 30 μg/mL, anti-CD3/anti-CD28 stimulation, 48 hours, FIG. 1), the “number of naïve CD4SP T cells (cell proliferation, OD 450 nm)” value was “decreased in a concentration-dependent manner”. In addition, in the data set on naïve CD4SP T cells [3] (etoposide 10 μM), the apoptosis-inducing effect result is on record as “any prominent apoptosis-inducing effect was not found”. The cell survival rate result with naïve CD4SP T cells [3] is given as “decreased to some extent in a concentration-dependent manner”. In data set [4], the “level of phosphorylated 4E-BP1” value was “decreased” and the “level of phosphorylated S6K” value is listed as “decreased”. Besides, in data set [5], the “expression of Cdk1” value was “inhibited”, the “expression of Cdk4” value is recorded as “inhibited”, the “expression of cyclin A2” value is “inhibited” and the “expression of cyclin B1” value is “inhibited”. Besides, in data set [5], the “expression of cyclin D3” value was “inhibited” and the “expression of p21” value is “increased”.
